Each structure is given as a SMILES string.

Here are results for 25 compounds from patent US7504400B2, “MTP inhibiting aryl piperydines or piperazines substituted with 5-membered heterocycles” (Janssen Pharmaceutica N.V., priority 2004, dated 2009).

The subject of the experiment is Secretion of ApoB. The experiment can be described thus: Quantification of the secretion of ApoB in HepG2 cells. The format is cell-based. The following applies: Homo sapiens, HepG2, 24 h, 24 hours of incubation with test compound, immunoprecipitation of apoB from medium, read-out: pIC50 value (=-log IC50 value), secretion of ApoB (converted). A digest of the protocol:
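At 70% confluency, HepG2 cells in MEM with 10% FCS received compound or DMSO carrier (0.4% final) for 24 h. Secreted apoB in cleared medium immunoprecipitated with sheep anti-apoB then rabbit anti-sheep antibody (24 h each, 8° C); pellet radioactivity counted by liquid scintillation; IC50 expressed as pIC50.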
Take `CC(C)n1nc(-c2ccccc2)n(-c2ccc(N3CCN(C(C(=O)NCc4ccccc4)c4ccccc4)CC3)cc2)c1=O` (stereo not shown) [Compound 33]: the IC50 was 316 to 3160 nM.

As to `COc1ccc(CCNC(=O)C(c2ccccc2)N2CCN(c3ccc(-n4cnn(C(C)C)c4=O)cc3)CC2)cc1OC` (stereo not shown) [Compound 82], the IC50 was 31.6 to 316 nM.

Consider `COC(=O)c1cccc(NC(=O)C(c2ccccc2)N2CCN(c3ccc(-n4cnn(C(C)C)c4=O)cc3)CC2)c1` (stereo not shown) [Compound 192], for which the IC50 is 31.6 to 316 nM.

Regarding `COC(=O)c1cc(NC(=O)C(c2ccccc2)N2CCC(c3ccc(-n4cnn(C(C)c5ccccc5)c4=O)cc3)CC2)ccc1C` (stereo not shown) [Compound 284], the IC50 was less than 31.6 nM.

In the case of `COC(=O)C(c1ccccc1)N1CCN(c2ccc(-n3nc(-c4ccccc4)n(C(C)C)c3=O)cc2)CC1` (stereo not shown) [Compound 34], the IC50 was 316 to 3160 nM.

For `Cc1cc(N2CCN(C(C(=O)Nc3ccc4c(c3)CCC4)c3ccccc3)CC2)ccc1-n1cnn(C(C)C)c1=O` (stereo not shown) [Compound 218], the IC50 was less than 31.6 nM.

For the compound `CCOC(=O)C(c1ccccc1)C1CCN(c2ccc(-n3ccn([C@H](C)c4ccc(Br)cc4)c3=O)cc2)CC1` (stereo partly shown) [Compound 249], the IC50 was 31.6 to 316 nM.

Regarding `CCC(C)n1ncn(-c2ccc(N3CCN(C(C(=O)NCCC#N)c4ccccc4)CC3)cc2)c1=O` (stereo not shown) [Compound 110], the IC50 is 31.6 to 316 nM.

Consider `COc1ccc(CNC(=O)C(c2ccccc2)N2CCN(c3ccc(-n4cnn(C(C)C)c4=O)cc3)CC2)cc1` (stereo not shown) [Compound 71], for which the half-maximal inhibitory concentration (IC50) was 316 to 3160 nM.

As for `CNC(=O)C(c1ccccc1)N1CCN(c2ccc(-n3cnn(C(C)C)c3=O)cn2)CC1` (stereo not shown) [Compound 18], the IC50 is 316 to 3160 nM.

For `CCOC(=O)C(c1ccccc1)C1CCN(c2ccc(-n3ccn([C@H](COC)c4ccccc4)c3=O)cc2)CC1` (stereo partly shown) [Compound 259], the IC50 was 316 to 3160 nM.

Regarding `CCCNC(=O)C(c1ccccc1)C1CCN(c2ccc(-n3cnn(Cc4ccccc4)c3=O)cc2)CC1` (stereo not shown) [Compound 155], the IC50 is 31.6 to 316 nM.

For the compound `Cc1nn(-c2ccc(N3CCN(C(C(=O)NCc4ccccc4)c4ccccc4)CC3)cc2)c(=O)n1C(C)C` (stereo not shown) [Compound 40], the IC50 is 316 to 3160 nM.

Consider `CC(C)n1ncn(-c2ccc(N3CCC(C(C(=O)NCc4ccccc4)c4ccccc4)CC3)cc2)c1=O` (stereo not shown) [Compound 168], for which the IC50 was 31.6 to 316 nM.

On to `CCOC(=O)c1cc(CNC(=O)C(Cc2ccccc2)C2CCN(c3ccc(-n4cnn(C(C)c5ccccc5)c4=O)cc3)CC2)ccc1C` (stereo not shown) [Compound 383], for which the IC50 was 316 to 3160 nM.

As for `COC(=O)c1ccc(NC(=O)C(c2ccccc2)N2CCC(c3ccc(-n4cnn(C(C)C)c4=O)cc3)CC2)cc1C` (stereo not shown) [Compound 285], the IC50 was less than 31.6 nM.

Regarding `CNC(=O)C(CN1CCN(c2ccc(-n3cnn(C(C)C)c3=O)cc2)CC1)c1ccccc1` (stereo not shown) [Compound 100], the half-maximal inhibitory concentration (IC50) is 31.6 to 316 nM.

On to `CCCC(C(=O)Nc1ccc2c(c1)CCC2)N1CCN(c2ccc(-n3cnn(C(C)C)c3=O)cc2)CC1` (stereo not shown) [Compound 177], for which the IC50 is 31.6 to 316 nM.

With `O=C(NCc1ccccc1)C(c1ccccc1)C1CCN(c2ccc(-n3cnn(C/C=C/c4ccccc4)c3=O)cc2)CC1` (stereo not shown) [Compound 183], the IC50 is 31.6 to 316 nM.

As for `COC(=O)c1ccc(CNC(=O)C(c2ccccc2)N2CCN(c3ccc(-n4cnn(C(C)c5ccccc5)c4=O)cc3)CC2)cc1` (stereo not shown) [Compound 294], the IC50 is 316 to 3160 nM.

`COC(=O)c1[nH]c2ccc(C)cc2c1NC(=O)C(c1ccccc1)N1CCC(c2ccc(-n3cnn(C(C)C)c3=O)cc2)CC1` (stereo not shown) [Compound 353]: the IC50 is 31.6 to 316 nM.

`CCOC(=O)c1cc(NC(=O)C(c2ccccc2)C2CCN(c3ccc(-n4cnn(C(C)C)c4=O)cc3)CC2)ccc1C` (stereo not shown) [Compound 370]: the IC50 was 31.6 to 316 nM.

`COC(=O)C(c1ccccc1)N1CCN(c2ccc(-n3cnn(C(C)C)c3=O)cc2)CC1` (stereo not shown) [Compound 172]: the IC50 was 316 to 3160 nM.

Regarding `CC(C)n1ncn(-c2ccc(N3CCN(C(C(=O)NCCC#N)c4ccccc4)CC3)cc2)c1=O` (stereo not shown) [Compound 132], the IC50 is 316 to 3160 nM.

With `CCNC(=O)C(c1ccccc1)N1CCN(c2ccc(-n3c(-c4ccccc4)nn(-c4ccccc4)c3=O)cc2)CC1` (stereo not shown) [Compound 28], the IC50 is 316 to 3160 nM.
